Like-named read-outs stand apart in the source and are kept apart here.
Key:
[1] = test system: TNF-α; assay: In-vitro cytokine inhibition in LPS-treated THP-1 cells (ELISA), TNF-α; assay type: cell-based, human; settings: LPS 1 μg/ml, 24 h, sample 12.5 μg/mL
Experimental: (§1) For the in vitro analysis of pro-inflammatory cytokines (IL-6 and TNF-α), human leukemia THP-1 cells were seeded in a 24-well plate at a density of 4×10^5 cells/ml of RPMI medium per well. THP-1 cells were then treated with phorbol 12-myristate 13-acetate (20 ng/ml) for differentiation into macrophages for 18 h followed by a rest period of 48 h. Cells were further co-treated with test samples and 1 μg/ml of lipopolysaccharide (LPS) in a serum-free medium. Culture supernatant was harvested after 24 h for analysis of different cytokines by using OptEIA ELISA Kits from BD Biosciences. Total protein content for all the samples was calculated by using Bradford reagent from Bio-Rad Laboratories. All the samples were normalized by dividing cytokine concentration with total quantity of protein. Bergenin was reported earlier as an inhibitor of TNF-alpha and IL-6 and was therefore was used as a positive control in this assay.

[2] = in vivo; parameters: species or system SD rats; settings: rat
Experimental: The study was performed in male SD rats. To determine oral bioavailability of bergenin, the bergenin was administered at 5 mg/kg by IV route and at 50 mg/kg by oral route. For comparative oral pharmacokinetic study of plain extract (IIIM-160-A002) and GRSR formulation (filled in 9el capsules), the dose equivalent to 6.2 mg/kg of bergenin was administered in SD rats in both these groups. Blood samples were collected (n=3/time point) at 0.083 (IV only), 0.25, 0.5, 1, 2, 4, 8 and 24 h, post-dose. At each time point about 200 μL of blood was collected by jugular vein into a labeled microfuge tube containing 200 mM K2EDTA solution (20 μL per mL of blood) and equivalent volume of heparinized saline was replaced following sample collection. The blood samples were processed to obtain the plasma samples within 30 min of scheduled sampling time. All plasma samples were stored below −60° C. until bioanalysis. The plasma samples were analyzed for bergenin content using a fit-for purpose LC-MS/MS method with a lower limit of quantification (LLOQ) of 9.95 ng/mL. The pharmacokinetic parameters of bergenin were calculated using the non-compartmental analysis tool of validated Phoenix® WinNonlin® software (version 6.3).

[3] = rats; cited from earlier work
[4] = cited from earlier work
[5] = test system: IL-6; assay: In-vitro cytokine inhibition in LPS-treated THP-1 cells (ELISA), IL-6; assay type: cell-based, human; settings: LPS 1 μg/ml, 24 h, sample 12.5 μg/mL
Experimental: as §1

[6] = pH dependent stability of bergenin (HPLC, 24 h); assay type: physicochemical; settings: at pH 7.4 and above
Experimental: The stability study was performed in pH 1.2 buffer, pH 4.0 buffer, phosphate buffer pH 6.8, phosphate buffered saline pH 7.4, SGF (pH 1.2), SIF (pH 6.8) and plasma. The % of bergenin hydrolyzed after 24 h was determined by HPLC analysis. The HPLC analysis was carried out using the method as described in example 2.

COc1c(O)cc2c(c1O)[C@@H]1O[C@H](CO)[C@@H](O)[C@H](O)[C@H]1OC2=O [Bergenin, bergenin]
inhibition at 12.5 µg/mL ([1]; Homo sapiens): 61%
TNF-α (pg/mL)/total protein (μg) [1]: 2.40 ± 0.25 (pg/mL)/total protein (μg)
bioavailability ([2]; male, SD): 3%
AUC(0-t) ([2]; male, SD, iv, 5 mg/kg): 874 ng·h/mL
clearance ([2]; male, SD, iv, 5 mg/kg): 95.5 mL/min/kg
half-life ([2]; male, SD, iv, 5 mg/kg): 0.318 h
volume of distribution relative to normal total body water content (0.7 L/kg in rats) ([2]; male, SD, iv, 5 mg/kg): ~1.50 fold
AUC(0-t) ([2]; male, SD, po, 50 mg/kg): 269 ng·h/mL
Cmax ([2]; male, SD, po, 50 mg/kg): 170 ng/mL
half-life ([2]; male, SD, po, 50 mg/kg): 1.74 h
median time to reach the maximum plasma concentration ([2]; male, SD, po, 50 mg/kg): 0.25 h
clearance relative to normal hepatic blood flow (55 mL/min/kg in rats) ([2]; iv, 5 mg/kg): ~1.74 folds
plasma half-life (t1/2) [3]: 1 to 2 h
stability at acidic pH of stomach ([4]; pH 1.2): stable
stability at intestinal pH ([4]; pH 6.8 and above): gets degraded
degradation half life ([4]; pH 7): 14.4 h
degradation half life ([4]; pH 8): 2.9 h
inhibition at 12.5 µg/mL ([5]; Homo sapiens): 98%
IL-6 (pg/mL)/total protein (μg) [5]: 0.08 ± 0.107 (pg/mL)/total protein (μg)
hydrolysis of bergenin after 24 h [6]: gets hydrolyzed to its lactone ring opened product

— patent publication US11446346B2, “Gastroretentive sustained release formulations of Bergenia ciliata” (COUNCIL OF SCIENTIFIC & INDUSTRIAL RESEARCH, priority 2017, dated 2022)
